Experimental data taken from ChEMBL document CHEMBL1201862, “PubChem BioAssay data set” (2004).
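Exposure lasted 48 hours, with cells grown in 96-well plates and compounds tested at five concentrations. The concentration for 50% growth inhibition is given as GI50.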 Active and inactive are the calls of the source. Rule as the data show it: active = GI50 up to about 1.1 µM and inactive = higher.

Key:
Assay in all cases: DTP human tumour cell line panel, 48 h
BT-549 = test system: BT-549
COLO 205 = test system: COLO 205
DU-145 = test system: DU-145
HCC 2998 = test system: HCC 2998
Hs-578T = test system: Hs-578T
LOX IMVI = test system: LOX IMVI
M14 = test system: M14
MDA-N = test system: MDA-N
MOLT-4 = test system: MOLT-4
NCI-H226 = test system: NCI-H226
OVCAR-4 = test system: OVCAR-4
RXF 393 = test system: RXF 393
SF-295 = test system: SF-295
SF-539 = test system: SF-539
SNB-75 = test system: SNB-75
SR = test system: SR
SW-620 = test system: SW-620
T47D = test system: T47D
TK-10 = test system: TK-10
UACC-257 = test system: UACC-257

SMILES | GI50 (BT-549) | GI50 (COLO 205) | GI50 (DU-145) | GI50 (HCC 2998) | GI50 (Hs-578T) | GI50 (LOX IMVI) | GI50 (M14) | GI50 (MDA-N) | GI50 (MOLT-4) | GI50 (NCI-H226) | GI50 (OVCAR-4) | GI50 (RXF 393) | GI50 (SF-295) | GI50 (SF-539) | GI50 (SNB-75) | GI50 (SR) | GI50 (SW-620) | GI50 (T47D) | GI50 (TK-10) | GI50 (UACC-257)
N/N=C(/CC(O)(C(F)(F)F)C(F)(F)F)c1ccccc1 | > 10 µM (inactive) | > 10 µM (inactive) | > 10 µM (inactive) | > 10 µM (inactive) | > 10 µM (inactive) | > 10 µM (inactive) | > 10 µM (inactive) | > 10 µM (inactive) | > 10 µM (inactive) | > 10 µM (inactive) | > 10 µM (inactive) | > 10 µM (inactive) | > 10 µM (inactive) | > 10 µM (inactive) | > 10 µM (inactive) | > 10 µM (inactive) | > 10 µM (inactive) | > 10 µM (inactive) | > 10 µM (inactive) | > 10 µM (inactive)
Clc1cccc(Cl)c1/C=N/C12CC3CC(CC(C3)C1)C2 | > 10 µM (inactive) | > 10 µM (inactive) | > 10 µM (inactive) | > 10 µM (inactive) | > 10 µM (inactive) | > 10 µM (inactive) | > 10 µM (inactive) | > 10 µM (inactive) | > 10 µM (inactive) | > 10 µM (inactive) | > 10 µM (inactive) | > 10 µM (inactive) | > 10 µM (inactive) | > 10 µM (inactive) | 6.47 µM (inactive) | 3.26 µM (inactive) | > 10 µM (inactive) | > 10 µM (inactive) | > 10 µM (inactive) | > 10 µM (inactive)
COc1ccccc1NC(=S)N/N=C(/c1ccccc1)c1ccccn1 | 2.15 µM (inactive) | 0.0173 µM (active) | 0.325 µM (active) | 5.97 µM (inactive) | 7.05 µM (inactive) | 0.0254 µM (active) | < 0.0249 µM (active) | 0.229 µM (active) | < 0.0182 µM (active) | 0.146 µM (active) | 0.71 µM (active) | 1.07 µM (active) | 0.261 µM (active) | 1.37 µM (inactive) | 0.998 µM (active) | < 0.0206 µM (active) | 0.021 µM (active) | < 0.0426 µM (active) | 0.125 µM (active) | < 0.0167 µM (active)
CCOc1cc2c(cc1OC(C)=O)C(=O)CC[C@H]1C3CC[C@H](OC(C)=O)[C@@]3(C)CC[C@H]21 (stereo not given in full) | > 100 µM (inactive) | > 100 µM (inactive) | > 100 µM (inactive) | > 100 µM (inactive) | > 100 µM (inactive) | > 100 µM (inactive) | > 100 µM (inactive) | > 100 µM (inactive) | > 100 µM (inactive) | > 100 µM (inactive) | > 100 µM (inactive) | > 100 µM (inactive) | > 100 µM (inactive) | > 100 µM (inactive) | > 100 µM (inactive) | > 100 µM (inactive) | > 100 µM (inactive) | > 100 µM (inactive) | > 100 µM (inactive) | > 100 µM (inactive)
C=C1C(=O)OC2CC(C)C3CC(O)OC(OCC)C3(C)CC12 (stereo not given) | > 41.8 µM (inactive) | 15.8 µM (inactive) | 33.6 µM (inactive) | 16.8 µM (inactive) | 23.1 µM (inactive) | 6.01 µM (inactive) | 14.8 µM (inactive) | 17.5 µM (inactive) | 16.7 µM (inactive) | 25.3 µM (inactive) | 21.7 µM (inactive) | 14.8 µM (inactive) | 26.6 µM (inactive) | 18.1 µM (inactive) | 15.5 µM (inactive) | 13.6 µM (inactive) | 6.85 µM (inactive) | 16.6 µM (inactive) | 22 µM (inactive) | 16.3 µM (inactive)
C[N+](C)([O-])CCCNc1c2ccccc2nc2cccc([N+](=O)[O-])c12 | 0.703 µM (active) | 0.143 µM (active) | 0.299 µM (active) | 0.164 µM (active) | 0.938 µM (active) | 0.51 µM (active) | 0.258 µM (active) | 0.173 µM (active) | 0.142 µM (active) | 0.313 µM (active) | 0.288 µM (active) | 0.163 µM (active) | 0.592 µM (active) | 1.07 µM (active) | 0.456 µM (active) | 0.0653 µM (active) | 0.203 µM (active) | 0.257 µM (active) | 0.982 µM (active) | 0.536 µM (active)
O=c1[nH]c(C23CC4CC(CC(C4)C2)C3)cc2c1c(=O)oc1ccccc12 | 11.2 µM (inactive) | 10 µM (inactive) | 6.31 µM (inactive) | 5.31 µM (inactive) | 1.1 µM (active) | 2.95 µM (inactive) | 8.65 µM (inactive) | 12.8 µM (inactive) | 10.5 µM (inactive) | 2.19 µM (inactive) | 3.15 µM (inactive) | 2.35 µM (inactive) | 3.71 µM (inactive) | 4.53 µM (inactive) | 2.53 µM (inactive) | 0.366 µM (active) | 7.59 µM (inactive) | 8.89 µM (inactive) | 3.43 µM (inactive) | 19.8 µM (inactive)
CCC(=O)c1cc(C(=O)C(=S)SC)cc(C(=O)C(=S)SC)c1 | > 100 µM (inactive) | > 100 µM (inactive) | > 100 µM (inactive) | > 100 µM (inactive) | > 49.7 µM (inactive) | 4.19 µM (inactive) | > 100 µM (inactive) | > 100 µM (inactive) | 12 µM (inactive) | > 100 µM (inactive) | > 100 µM (inactive) | > 100 µM (inactive) | > 100 µM (inactive) | > 100 µM (inactive) | > 100 µM (inactive) | 11 µM (inactive) | 52.8 µM (inactive) | > 100 µM (inactive) | > 100 µM (inactive) | > 100 µM (inactive)
CN(C)c1ccc(/C=C(\NC(=O)c2ccccc2)C2=NC(CCC(=O)O)C(=O)O2)cc1 (stereo not given) | > 50 µM (inactive) | > 50 µM (inactive) | > 50 µM (inactive) | > 50 µM (inactive) | > 50 µM (inactive) | > 44.9 µM (inactive) | > 50 µM (inactive) | > 50 µM (inactive) | > 50 µM (inactive) | > 50 µM (inactive) | > 35.1 µM (inactive) | > 50 µM (inactive) | > 50 µM (inactive) | > 35.2 µM (inactive) | > 50 µM (inactive) | 49.2 µM (inactive) | > 50 µM (inactive) | > 50 µM (inactive) | > 50 µM (inactive) | > 50 µM (inactive)
O=C([C@H](O)[C@@H](O)c1ccc(Br)cc1)C12CC3CC(CC(C3)C1)C2 | 8.73 µM (inactive) | > 20.2 µM (inactive) | 9.68 µM (inactive) | > 21.3 µM (inactive) | > 39.1 µM (inactive) | 31.1 µM (inactive) | 13.6 µM (inactive) | 11.1 µM (inactive) | 14.4 µM (inactive) | > 49.8 µM (inactive) | 19.3 µM (inactive) | 52.7 µM (inactive) | 13 µM (inactive) | 8.91 µM (inactive) | 2.93 µM (inactive) | 34.8 µM (inactive) |  | 6.56 µM (inactive) | 14 µM (inactive) | 9.59 µM (inactive)
CC(=O)OCC1=C(C)C[C@H]([C@@H](COC(C)=O)C2CCC3C4C[C@H]5O[C@]56CC=CC(=O)[C@]6(C)C4CC[C@@]32C)OC1=O (stereo not given in full) | 0.26 µM (active) | 0.307 µM (active) | 0.414 µM (active) | 0.573 µM (active) | 1 µM (active) | 0.122 µM (active) | 0.188 µM (active) | 0.175 µM (active) | 0.0204 µM (active) | 0.598 µM (active) | 0.359 µM (active) | 0.369 µM (active) | 1.19 µM (inactive) |  | 2.16 µM (inactive) | 0.005 µM (active) | 0.115 µM (active) | 0.353 µM (active) | 0.993 µM (active) | 0.302 µM (active)
CS(=N)(=O)CCC(N)P(=O)(O)O (stereo not given) | > 100 µM (inactive) | > 100 µM (inactive) | > 100 µM (inactive) | > 100 µM (inactive) | > 100 µM (inactive) | > 100 µM (inactive) | > 100 µM (inactive) | > 100 µM (inactive) | > 100 µM (inactive) | > 100 µM (inactive) | > 100 µM (inactive) | > 100 µM (inactive) | > 100 µM (inactive) | > 100 µM (inactive) |  | > 100 µM (inactive) | > 100 µM (inactive) | > 100 µM (inactive) | > 100 µM (inactive) | > 100 µM (inactive)
COC(=O)C(C)(NC(=O)C(CC(=O)OC(C)(C)C)NC(=O)OC(C)(C)C)c1ccccc1 (stereo not given) | > 100 µM (inactive) | > 100 µM (inactive) | > 100 µM (inactive) | > 100 µM (inactive) | > 100 µM (inactive) | > 100 µM (inactive) | > 100 µM (inactive) | > 100 µM (inactive) | > 100 µM (inactive) | > 100 µM (inactive) |  | > 100 µM (inactive) | 81.8 µM (inactive) | > 100 µM (inactive) | 8.13 µM (inactive) | 73.5 µM (inactive) | > 100 µM (inactive) | 35.4 µM (inactive) | > 100 µM (inactive) | > 100 µM (inactive)
COC(NC(=O)Nc1ccccc1C)(C(F)(F)F)C(F)(F)F | 94.4 µM (inactive) | > 100 µM (inactive) | > 100 µM (inactive) | > 100 µM (inactive) | > 100 µM (inactive) | > 100 µM (inactive) | > 100 µM (inactive) | > 100 µM (inactive) | > 100 µM (inactive) | > 100 µM (inactive) | > 100 µM (inactive) | 1.21 µM (inactive) | > 100 µM (inactive) | > 100 µM (inactive) | > 100 µM (inactive) | > 100 µM (inactive) | > 100 µM (inactive) | 22.4 µM (inactive) | > 100 µM (inactive) | 
